Source: US20180028553A1, “USE OF STING AGONIST AS CANCER TREATMENT” (The University of Chicago, priority 2013, published 2018)

How the values were obtained:
[1] = target: T1, hSTING^REF (Homo sapiens, UniProt Q86WV6); experiment: IFN-β luciferase reporter assay in HEK 293T cells expressing hSTING REF; type: cell-based; settings: 10 μM CDN, 6 hours
T1 construct: expressing each of the full length hSTING variants; expressed in transfected cells; host or cells: HEK 293T (deficient in endogenous STING), MSCV2.2 retroviral transduction
Procedure: (§1) Luciferase Assay. […] After 20 min, stimulation mixtures were removed and normal media was added. After a total of 6 hours, cell lysates were prepared and reporter gene activity measured using the Dual Luciferase Assay System (Promega) on a Spectramax M3 luminometer.

[2] = system: STING pathway (TBK1, IRF3 phosphorylation); experiment: Western blot of pTBK1 and pIRF3 in macrophages and BM-DCs after STING agonist; type: cell-based, mouse; settings: WT macrophages; DMXAA 50 μg/ml or ML RR-S2 CDA 50 μM
Procedure: DMXAA for the same time-points. Proteins were extracted with Triton-X buffer (150 mM sodium chloride, 50 mM Tris, 1% Triton-X, pH 8.0) with proteinase inhibitors (Thermo scientific) and phosphatase inhibitors (Sigma). 30 μg of protein was electrophoresed in 10% SDS-PAGE gels and transferred onto Immobilon-FL membranes (Millipore). Blots were incubated with antibodies specific for phosphorylated TBK1 (Ser172), phosphorylated IRF3 (Ser396), total TBK1, STING and GAPDH (Cell Signaling) or total IRF3 (Invitrogen). Proteins from HEK 293T lines stably expressing STING were extracted with M-PER (Thermo Scientific). 6 μg of protein was loaded onto a 4-12% MES NuPAGE gel (Life Technologies), transferred to nitrocellulose, and probed with anti-HA antibody (Santa Cruz). Anti-rabbit IRDye 680RD label secondary antibody was used for visualization of bands with the Odyssey Imaging system (LI-COR).

[3] = system: B16.F10 tumors; experiment: Intratumoral treatment of established B16.F10 tumors; type: in vivo, mouse; settings: for injection site reactogenicity: three IT injections; for effect on tumor growth: WT C57BL/6 mice, three IT injections over a one-week period
Procedure: (§2) In vivo tumor experiments. 10^6 of B16-SIY tumor cells, 5×10^4 B16.F10 tumor cells, 10^5 4T1 and CT26, or 10^6 other tumor cells were injected s.c. in 100 μl DPBS or HBSS on the right flank of mice. Following tumor implantation, mice were randomized into treatment groups. […] Measurements of tumors were performed twice per week using calipers, and the tumor volume was calculated with the formula: V=(length×width^2)/2. In some experiments, tumor-free survivors were rechallenged with tumor cells on the opposite flank several weeks after the injection of the primary tumor. Naïve mice were used as controls. For the contralateral experiments, mice were implanted on both flanks and only one tumor was treated. For the B16 melanoma lung metastasis experiments, mice were implanted on the flank with 5×10^4 cells B16.F10 on day 0, and then injected intravenously with 1×10^5 cells on day 7. Lungs were harvested on day 28. Administration of compounds, measurements of tumors and counting of lung tumors were performed in a blinded fashion.

[4] = system: 4T-1 tumors; experiment: Intratumoral treatment of 4T-1 tumors; type: in vivo, mouse
Procedure: as §2

[5] = system: CT26 colon carcinoma; experiment: Intratumoral treatment of CT26 colon carcinoma; type: in vivo, mouse
Procedure: as §2

[6] = system: B16.F10 lung metastases; experiment: B16 melanoma lung metastasis experiment; type: in vivo, mouse; settings: flank tumor treated IT, ML RR-S2 CDA 50 μg versus DMXAA 150 μg
Procedure: as §2

[7] = system: CT26 rejection antigen AH1; experiment: IFN-γ ELISPOT against AH1 in CT26-bearing mice; type: in vivo, mouse; settings: 21 days post-implantation
Procedure: IFN-γ ELISPOT and SIY-pentamer staining. […] […] Spots were developed using the BD mouse IFN-γ kit according to the manufacturer's instructions and the number of spots was measured using an Immunospot Series 3 Analyzer and analyzed using ImmunoSpot software (Cellular Technology Ltd). For SIY-pentamer staining, splenocytes were preincubated for 15 min with anti-CD16/32 monoclonal antibody (93) to block potential nonspecific binding, and labeled with PE-MHC class I pentamer (Proimmune) consisting of murine H-2K^b complexed to […] (SIY) peptide, anti-TCRβ-AF700 (H57-597), anti-CD8-Pacific Blue (53-6.7), anti-CD4-Pacific Orange (RM4-5) (all antibodies from BioLegend) and the Fixable Viability Dye eFluor 450 (eBioscience). Stained cells were analyzed using LSR II cytometer with FACSDiva software (BD). Data analysis was conducted with FlowJo software (Tree Star).

[8] = system: five hSTING alleles (WT, REF, HAQ, AQ and Q); experiment: IFN-β luciferase reporter assay in HEK 293T cells expressing hSTING variants; type: cell-based, human; settings: 10 μM CDN, 6 hours
Procedure: as §1

[9] = system: murine bone marrow macrophages (BMMs); experiment: qRT-PCR of IFN-β and cytokines in bone marrow macrophages stimulated with CDNs; type: cell-based, mouse; settings: WT C57BL/6 BMMs, 5 μM, 6 hours; compared to ML-cGAMP, poly I:C and LPS on a molar equivalent basis
Procedure: WT BMM were stimulated with CDN at 5 μM in HBSS with the addition of Effectene (Qiagen) transfection reagent (per kit protocol). […] After a 6 hr incubation, cells were harvested and assessed by real-time qRT-PCR for gene expression of IFN-β1, MCP-1, TNF-α) and IL-6 using the PrimePCR RNA purification and cDNA analysis system, and run on the CFX96 gene cycler (BioRad).

[10] = BALB/c mice, three IT doses of 50 μg
[11] = bilateral tumors, IT injection into one tumor
[12] = mice cured of their primary tumor

T1 sequence (Q86WV6 whole entry): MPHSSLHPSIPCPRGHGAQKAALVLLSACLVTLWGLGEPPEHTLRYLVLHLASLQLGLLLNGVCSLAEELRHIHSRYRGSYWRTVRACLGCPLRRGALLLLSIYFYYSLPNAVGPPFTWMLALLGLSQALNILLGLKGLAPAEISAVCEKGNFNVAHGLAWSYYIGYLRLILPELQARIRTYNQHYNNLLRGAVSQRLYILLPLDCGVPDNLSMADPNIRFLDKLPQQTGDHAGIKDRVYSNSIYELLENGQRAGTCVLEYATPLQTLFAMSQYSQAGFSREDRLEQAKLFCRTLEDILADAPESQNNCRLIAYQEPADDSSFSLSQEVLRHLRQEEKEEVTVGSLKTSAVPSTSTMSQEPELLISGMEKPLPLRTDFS

Structure (SMILES): Nc1ncnc2c1ncn2[C@@H]1O[C@@H]2COP(=O)(O)O[C@H]3[C@@H](O)[C@H](n4cnc5c(N)ncnc54)O[C@@H]3COP(=O)(O)O[C@H]2[C@H]1O [CDA]
- IFN-β reporter responsiveness [1]: responded poorly

Structure (SMILES): Nc1ncnc2c1ncn2[C@@H]1O[C@@H]2COP(O)(=S)O[C@@H]3C(O)[C@@H](COP(O)(=S)O[C@H]2[C@H]1O)O[C@H]3n1cnc2c(N)ncnc21 (stereo partly shown) [ML RR-S2 CDA, dithio-(Rp, Rp)-[cyclic[A(2′,5′)pA(3′,5′)p]]]
- phosphorylation of TBK1 and IRF3 [2]: induce phosphorylation of TBK1 and IRF3
- potency compared to CpG-based TLR9 agonists and multiple other TLR agonists ([3]; given IT at the same doses (50 μg)): significantly increased potency
- injection site reactogenicity [3]: no injection site reactogenicity
- tumor regression [4, 10]: significant and durable tumor regression
- regression of the contralateral untreated tumor [4, 11]: significant regression of the contralateral untreated tumor
- resistance to re-challenge [4, 12]: completely resistant to re-challenge
- tumor regression [5, 10]: significant and durable tumor regression
- regression of the contralateral untreated tumor [5, 11]: significant regression of the contralateral untreated tumor
- resistance to re-challenge [5, 12]: completely resistant to re-challenge
- inhibition of growth of distant lung metastases [6]: more significant inhibition of growth of distant lung metastases than DMXAA
- immune responses against AH1 (IFN-γ ELISPOT) [7]: improved immune responses
- IFN-β reporter activation [8]: potently activated all five hSTING alleles
- expression of pro-inflammatory cytokines (IFN-β) [9]: highest expression of pro-inflammatory cytokines

Structure (SMILES): Nc1nc2c(ncn2[C@@H]2O[C@@H]3CO[P@@](=O)(S)O[C@@H]4[C@H](O)[C@@H](CO[P@@](=O)(S)O[C@H]3[C@H]2O)O[C@H]4n2cnc3c(=O)[nH]c(N)nc32)c(=O)[nH]1 [ML RR-S2 CDG]
- efficacy at lower dose levels ([3]; lower dose levels): not efficacious
- therapeutic index ([3]; mouse, in vivo): narrow therapeutic index
- injection site reactogenicity [3]: reactogenic
- IFN-β reporter activation [8]: potently activated all five hSTING alleles
- expression of pro-inflammatory cytokines (IFN-β) [9]: highest expression of pro-inflammatory cytokines

Structure (SMILES): Nc1nc2c(ncn2C2OC3COP(=O)(O)OC4C(O)C(COP(=O)(O)OC3C2O)OC4n2cnc3c(=O)[nH]c(N)nc32)c(=O)[nH]1 (stereo not shown) [ML-CDG]
- effect on tumor growth [3]: modest effects on tumor growth

Structure (SMILES): Nc1ncnc2c1ncn2C1OC2COP(=O)(O)OC3C(O)C(COP(=O)(O)OC2C1O)OC3n1cnc2c(N)ncnc21 (stereo not shown) [ML-CDA]
- effect on tumor growth [3]: modest effects on tumor growth

Structure (SMILES): Nc1nc2c(ncn2[C@@H]2O[C@@H]3COP(=O)(O)O[C@H]4[C@@H](O)[C@H](n5cnc6c(=O)[nH]c(N)nc65)O[C@@H]4COP(=O)(O)O[C@H]3[C@H]2O)c(=O)[nH]1 [CDG]
- IFN-β reporter responsiveness [1]: responded poorly
